SMILES strings stand for the structures.

In general, melting point refers to the temperature of the solid-liquid transition.

The molecule `Cn1c(C#N)ccc1-c1ccc2c(c1F)C1(CC1)C(=O)N2` [Example 5, 5-(4′-fluoro-2′-oxospiro[cyclopropane-1,3′-indoline]-5′-yl)-1-methyl-1H-pyrrole-2-carbonitrile] returned a melting point of 222.5 to 223.8 °C.

Values taken from patent US20080051585A1, “Process for the preparation of indolin-2-one derivatives useful as PR modulators” (Wyeth, priority 2006, published 2008).
